Assay results taken from patent US6303591A, “21-hydroxy-6,19-oxidoprogesterone (21OH-6OP) and its use as medicament for treating excess of glucocorticoids” (Applied Research Systems ARS Holding NV, priority 1997, dated 2001).
“Also recorded” adds a separate entry of the source.

Experiments:
[1] = tested on: Na^+ retention (sodium-excretion rate); test: Na^+ -retaining activity, adrenalectomized rats; type: in vivo, rat
Protocol: FIG. 3: Biological Properties of 21OH-6OP: A) Glycogen storage in vivo: 100 μg steroid/100 g body weight of male rats were injected as indicated in Example 1. Liver glycogen was purified and quantified with Krisman's reagent (17). Controls were injected with vehicle. Results are expressed as means±SEM (n=6). (*): different from controls P<0.02. B) TAT induction in vitro: rat hepatocytes were incubated for 5 h in HAM-F12 medium in the presence of 100 nM steroid and TAT activity was measured. Results are expressed as percentage of enzyme activity (means±SEM, n=4) over controls incubated in the presence of vehicle. (*) different from controls P<0.01. C) Sodium-retaining activity: adrenalectomized rats were treated with the indicated dose of steroids. Results are expressed as the ratio of sodium-excretion rates of steroid-injected animals to the excretion rates of rats injected with vehicle.
Bioassay : Liver glycogen deposition was measured on adrenalectoniized male Sprague-Dawley rats (180-220 g) as follows: steroids were dissolved in ethanol/propylene glycol/0.9% NaCl solution (3:3:34) and 100 μg steroid/l00 g body weight were injected i.m. the previous night. On the morning of the experiment this dose was reinjected intraperitoneally. Three hours later the rats were killed by cervical dislocation and livers were immediately removed. Glycogen purification and quantification were carried out according to Krisman's method (17). Na^+ -retaining properties were measured as described (5). Tyrosine aminotransferase (TAT) was induced in rat hepatocytes isolated by the procedure of Fry et al (18). TAT activity was determined according to Granner and Tomkins (19).

[2] = target: T1, uterus PR (progesterone receptor) (Rattus norvegicus, UniProt Q63449); test: (^3 H)-P4 binding to uterus cytosols (PR); conditions: uterus cytosol, 12 h at 0° C., 1 μM cortisol
T1 sequence (Q63449 1-923): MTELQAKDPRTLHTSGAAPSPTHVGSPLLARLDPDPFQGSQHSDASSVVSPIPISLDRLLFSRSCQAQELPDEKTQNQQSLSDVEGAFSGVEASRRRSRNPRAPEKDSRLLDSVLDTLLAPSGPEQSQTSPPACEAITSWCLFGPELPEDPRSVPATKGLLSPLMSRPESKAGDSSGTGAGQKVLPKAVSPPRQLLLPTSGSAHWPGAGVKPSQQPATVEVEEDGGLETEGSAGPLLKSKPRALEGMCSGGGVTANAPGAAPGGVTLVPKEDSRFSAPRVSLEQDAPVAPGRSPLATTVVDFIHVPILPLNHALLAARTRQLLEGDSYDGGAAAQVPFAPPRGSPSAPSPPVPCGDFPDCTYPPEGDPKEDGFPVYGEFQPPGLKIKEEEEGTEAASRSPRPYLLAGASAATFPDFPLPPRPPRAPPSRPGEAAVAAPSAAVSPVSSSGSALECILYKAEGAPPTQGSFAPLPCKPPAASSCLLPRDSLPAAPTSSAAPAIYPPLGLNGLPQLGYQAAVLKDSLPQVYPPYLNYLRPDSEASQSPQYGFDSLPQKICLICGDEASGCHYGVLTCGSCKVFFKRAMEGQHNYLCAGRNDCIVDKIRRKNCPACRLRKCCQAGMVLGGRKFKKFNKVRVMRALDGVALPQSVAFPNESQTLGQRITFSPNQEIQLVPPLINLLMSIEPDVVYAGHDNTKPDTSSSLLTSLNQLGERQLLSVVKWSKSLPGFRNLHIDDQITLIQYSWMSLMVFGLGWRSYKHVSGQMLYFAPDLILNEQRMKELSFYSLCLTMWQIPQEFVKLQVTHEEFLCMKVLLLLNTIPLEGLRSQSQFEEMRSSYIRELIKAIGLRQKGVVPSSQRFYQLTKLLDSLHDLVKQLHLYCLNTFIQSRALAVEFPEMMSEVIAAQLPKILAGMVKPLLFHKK
Protocol: Binding Assay: Adrenalectomized male Sprague-Dawley rats were bled to death by heart puncture. Cold 0.9% NaCI was injected profusely through the aorta until organs were completely blanched. Thymuses were used as a source of GR and kidneys as a source of MR. Homogenization and incubation conditions were performed as previously described, (14) and (15), respectively. Briefly, homogenates performed in cold TEGM buffer at pH 7.4 (0.1 M Tris-HCl, 10 mM EDTA, 10 mM α-mercaptoethanol, 20 mM Na2 MoO4, 25% glycerol, 0.1 mM PMSF, 2.0 TIU/ml aprotinin and 1 mg% Leupeptin) were centrifuged at 37,000 rev. for 30 min at 0° C. Supernatants from this centrifugation are referred to as "cytosol". […] (^3 H)-P4 binding to uterus PR was assayed on immature female rats according to Jordan et al (16).
Relative binding affinity (RBA) for partially purified CBG was determined by steroid competition for (^3 H)-B binding as described previously (14).

For `C[C@]12CC[C@H]3[C@@H](C[C@H]4OC[C@@]35CCC(=O)C=C45)[C@@H]1CC[C@@H]2C(=O)CO` [21OH-6OP, 21-hydroxy-6,19-oxidoprogesterone], the “Na^+ -retaining (MC) properties (in words)” value ([1]; FIG. 3-C) was “almost devoid of MC properties; also recorded: then loosing activity at still higher doses”, the “maximum Na^+ retention” value ([1]; maximum of parabolic dose-response, at high doses) was 40% and the “displacement of (^3 H)-P4 from uterus receptors / cross-reaction with PR” value [2] was “unable to cross-react with uterus-PR or kidney-MR; also recorded: does not cross-react with progesterone receptor; also recorded: as weakly as the negative control 17β-estradiol; also recorded: no ability to interact with MR nor PR; also recorded: does not cross-react with PR”.
